According to patent publication US8003686B2, “Aryl derivatives of curcumin, demethoxycurcumin, bisdemethoxycurcumin or curcuminisoxazolide and their use as animal feed additives” (DSM IP Assets B.V., priority 2005, dated 2011):

Columns and labels:
Test in all cases: Inhibition of bacterial growth in broth culture, CFU counting
Type in all cases: cell-based
[1] = tested on: Enterococcus faecium (G); details: 1000 μM; Enterococcus faecium from pig gastrointestinal content; counting after 24 hours at 37° C.
Description: (§1) The following bacteria were isolated from pig gastrointestinal content: Escherichia coli 0.94 (A), Escherichia coli 0.96 (B), Klebsiella pneumoniae (C), Salmonella typhimurium pF3127 (D), Salmonella enteritidis pF1338 (E), Enterococcus faecalis (F), Enterococcus faecium (G), Staphylococcus hyicus (H), Lactobacillus salivarius (I) and Lactobacillus acidophilus 3 (J). Their identities were confirmed by microscopic examination after gram staining and biochemical testing using the appropriate API system. Test strains were maintained in tryptic soy broth (named BTS; […] Overnight cultures of the test organisms were diluted in tryptic soy broth to the final concentration used for inoculation of the assay. Pure bacteria were counted on tryptic soy agar (Merck, Darmstadt, Germany) after aerobical incubation at 37° C. during 24 hours. […] Sterilized nutrient broth was prepared using tryptic soy broth (Merck, Darmstadt, Germany), and 4.4 ml of it was added to each test tube. 500 μl of each of the dilutions and 100 μl of bacteria, diluted to the appropriate inoculum size (2×10^4 to 10^5 CFU/ml), was added to the test tubes. […] Becton […], France). The final concentration of each derivative was […]. The tubes and the microtiter plates were incubated during 24 to 48 hours (depending of the bacteria tested) at 37° C. and under agitation. Inhibition of growth was determined by bacterial counting after 24 hours of incubation. […] All bacterial counts were realized with two replicate plates. In general, each assay was performed in two replicates. The reduction of bacterial growth was determined by subtracting the number of the bacteria of the test culture after 24 hours from the number of bacteria of the control culture. The colonies developed after incubation were counted, and the inhibitory effect was calculated according to Rico-Munoz and Davidson, J.

[2] = tested on: Escherichia coli 0.94 (A); details: 1000 μM; Escherichia coli 0.94 from pig gastrointestinal content; counting after 24 hours at 37° C.
Description: as §1

[3] = tested on: Escherichia coli 0.96 (B); details: 1000 μM; Escherichia coli 0.96 from pig gastrointestinal content; counting after 24 hours at 37° C.
Description: as §1

[4] = tested on: Klebsiella pneumoniae (C); details: 1000 μM; Klebsiella pneumoniae from pig gastrointestinal content; counting after 24 hours at 37° C.
Description: as §1

[5] = tested on: Lactobacillus salivarius (I); details: 1000 μM; Lactobacillus salivarius from pig gastrointestinal content; counting after 24 hours at 37° C.
Description: as §1

[6] = tested on: Salmonella enteritidis pF1338 (E); details: 1000 μM; Salmonella enteritidis pF1338 from pig gastrointestinal content; counting after 24 hours at 37° C.
Description: as §1

[7] = tested on: Salmonella typhimurium pF3127 (D); details: 1000 μM; Salmonella typhimurium pF3127 from pig gastrointestinal content; counting after 24 hours at 37° C.
Description: as §1

[8] = tested on: Staphylococcus hyicus (H); details: 1000 μM; Staphylococcus hyicus from pig gastrointestinal content; counting after 24 hours at 37° C.
Description: as §1

[9] = tested on: Enterococcus faecalis (F); details: 1000 μM; Enterococcus faecalis from pig gastrointestinal content; counting after 24 hours at 37° C.
Description: as §1

Row | Substance | Percentage of inhibition of growth of bacterial strain G [1] | Percentage of inhibition of growth of bacterial strain A [2] | Percentage of inhibition of growth of bacterial strain B [3] | Percentage of inhibition of growth of bacterial strain C [4] | Percentage of inhibition of growth of bacterial strain I [5] | Percentage of inhibition of growth of bacterial strain E [6] | Percentage of inhibition of growth of bacterial strain D [7] | Percentage of inhibition of growth of bacterial strain H [8] | Percentage of inhibition of growth of bacterial strain F [9]
1 | Curcumin diphosphate ammonium salt [derivative 2] | 13 ± 6% | 35 ± 41% | 47 ± 28% | 25 ± 5% | 64 ± 50% | 30 ± 34% | 40 ± 72% | 2 ± 7% | 
2 | curcumindipalmitate [Example 1] |  | 62 ± 0.3% | 59 ± 17% | 12 ± 4% | 2% | 14 ± 13% | 33 ± 29% | −4 ± 42% | 38 ± 34%
